Results reported in PubChem BioAssay AID1963833 (Molecular Pharmacology Branch, DTP, NCI, 2024).

Test system: 883617-216-R-J1-PDC complex spheroid viability
Assay: Anticancer human tumor 883617-216-R-J1-PDC patient-derived bladder carcinoma cell line growth inhibition [POLQ]
Details: for IC50: curve of first compound; for viability, T/C: stronger effect = lower value
Outline: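 PDC + HUVEC + MSC complex spheroids; POLQ inhibitors ± partner drugs; top conc. at/near clinical Cmax, else 10 microM (SN-38 1 microM), half-log dilutions; 37 degrees C, 5% CO2.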

[1] = second compound 0.0316 µM, first compound 0.00316 µM
[2] = second compound 0.0316 µM, first compound 0.01 µM
[3] = second compound 0.0316 µM, first compound 0.0316 µM
[4] = second compound 0.0316 µM, first compound 0.1 µM
[5] = second compound 0.0316 µM, first compound 0.316 µM
[6] = second compound 0.0316 µM, first compound 1 µM
[7] = second compound 0.1 µM, first compound 0.00316 µM
[8] = second compound 0.1 µM, first compound 0.01 µM
[9] = second compound 0.1 µM, first compound 0.0316 µM
[10] = second compound 0.1 µM, first compound 0.1 µM
[11] = second compound 0.1 µM, first compound 0.316 µM
[12] = second compound 0.1 µM, first compound 1 µM
[13] = second compound 0.316 µM, first compound 0.00316 µM
[14] = second compound 0.316 µM, first compound 0.01 µM
[15] = second compound 0.316 µM, first compound 0.0316 µM
[16] = second compound 0.316 µM, first compound 0.1 µM
[17] = second compound 0.316 µM, first compound 0.316 µM
[18] = second compound 0.316 µM, first compound 1 µM
[19] = second compound 1 µM, first compound 0.00316 µM
[20] = second compound 1 µM, first compound 0.01 µM
[21] = second compound 1 µM, first compound 0.0316 µM
[22] = second compound 1 µM, first compound 0.1 µM
[23] = second compound 1 µM, first compound 0.316 µM
[24] = second compound 1 µM, first compound 1 µM
[25] = second compound 3.16 µM, first compound 0.00316 µM
[26] = second compound 3.16 µM, first compound 0.01 µM
[27] = second compound 3.16 µM, first compound 0.0316 µM
[28] = second compound 3.16 µM, first compound 0.1 µM
[29] = second compound 3.16 µM, first compound 0.316 µM
[30] = second compound 3.16 µM, first compound 1 µM
[31] = second compound 10 µM, first compound 0.00316 µM
[32] = second compound 10 µM, first compound 0.01 µM
[33] = second compound 10 µM, first compound 0.0316 µM
[34] = second compound 10 µM, first compound 0.1 µM
[35] = second compound 10 µM, first compound 0.316 µM
[36] = second compound 10 µM, first compound 1 µM
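Further: spheroids exposed to compounds for seven days before readout.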
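Wherever viability, T/C is given: 100% = DMSO vehicle control viability.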

CCc1c2c(nc3ccc(O)cc13)-c1cc3c(c(=O)n1C2)COC(=O)[C@]3(O)CC + Cc1cccc(N(C)C(=O)C2C(O)CCN2c2nc(C)cc(C(F)(F)F)c2C#N)c1
IC50 (second compound 0.0316 µM): 101 nM | IC50 (second compound 0.1 µM): 69.4 nM | IC50 (second compound 0.316 µM): 84.7 nM | IC50 (second compound 1 µM): 62.7 nM | IC50 (second compound 3.16 µM): 59.9 nM | IC50 (second compound 10 µM): 125 nM | viability, T/C [1]: 59.4% | viability, T/C [2]: 58.6% | viability, T/C [3]: 52.8% | viability, T/C [4]: 52% | viability, T/C [5]: 34.2% | viability, T/C [6]: 21.2% | viability, T/C [7]: 71.4% | viability, T/C [8]: 60.8% | viability, T/C [9]: 57.9% | viability, T/C [10]: 46.9% | viability, T/C [11]: 37.7% | viability, T/C [12]: 25% | viability, T/C [13]: 60.1% | viability, T/C [14]: 66.2% | viability, T/C [15]: 55% | viability, T/C [16]: 49.6% | viability, T/C [17]: 32.6% | viability, T/C [18]: 17.6% | viability, T/C [19]: 65.1% | viability, T/C [20]: 61.7% | viability, T/C [21]: 60.8% | viability, T/C [22]: 41.3% | viability, T/C [23]: 33.6% | viability, T/C [24]: 20.5% | viability, T/C [25]: 71.6% | viability, T/C [26]: 59.7% | viability, T/C [27]: 54.8% | viability, T/C [28]: 45.3% | viability, T/C [29]: 40.6% | viability, T/C [30]: 22.4% | viability, T/C [31]: 79.8% | viability, T/C [32]: 70.5% | viability, T/C [33]: 62.1% | viability, T/C [34]: 49.1% | viability, T/C [35]: 44.9% | viability, T/C [36]: 13.5%

CNCc1ccc(-c2[nH]c3cc(F)cc4c3c2CCNC4=O)cc1 + Cc1cccc(N(C)C(=O)C2C(O)CCN2c2nc(C)cc(C(F)(F)F)c2C#N)c1
IC50 (second compound 0.0316 µM): > 10000 nM | IC50 (second compound 0.1 µM): > 10000 nM | IC50 (second compound 0.316 µM): > 10000 nM | IC50 (second compound 1 µM): > 10000 nM | IC50 (second compound 3.16 µM): > 10000 nM | IC50 (second compound 10 µM): > 10000 nM | viability, T/C [3]: 91.1% | viability, T/C [4]: 97.6% | viability, T/C [5]: 93% | viability, T/C [6]: 90.3% | viability, T/C (second compound 0.0316 µM, first compound 3.16 µM): 93.4% | viability, T/C (second compound 0.0316 µM, first compound 10 µM): 82.7% | viability, T/C [9]: 98.4% | viability, T/C [10]: 95.7% | viability, T/C [11]: 93.8% | viability, T/C [12]: 104% | viability, T/C (second compound 0.1 µM, first compound 3.16 µM): 89% | viability, T/C (second compound 0.1 µM, first compound 10 µM): 81.6% | viability, T/C [15]: 91.8% | viability, T/C [16]: 92% | viability, T/C [17]: 94.2% | viability, T/C [18]: 90.6% | viability, T/C (second compound 0.316 µM, first compound 3.16 µM): 94.9% | viability, T/C (second compound 0.316 µM, first compound 10 µM): 75.2% | viability, T/C [21]: 92.6% | viability, T/C [22]: 83.6% | viability, T/C [23]: 89.5% | viability, T/C [24]: 97.5% | viability, T/C (second compound 1 µM, first compound 3.16 µM): 96.9% | viability, T/C (second compound 1 µM, first compound 10 µM): 80.9% | viability, T/C [27]: 98.7% | viability, T/C [28]: 95.3% | viability, T/C [29]: 86.8% | viability, T/C [30]: 84.2% | viability, T/C (second compound 3.16 µM, first compound 3.16 µM): 107% | viability, T/C (second compound 3.16 µM, first compound 10 µM): 88.6% | viability, T/C [33]: 106% | viability, T/C [34]: 98.6% | viability, T/C [35]: 105% | viability, T/C [36]: 102% | viability, T/C (second compound 10 µM, first compound 3.16 µM): 107% | viability, T/C (second compound 10 µM, first compound 10 µM): 93.3%

COc1cccc(OCCCN)c1-c1cc(Nc2cnc(C#N)cn2)n[nH]1 + Cc1cccc(N(C)C(=O)C2C(O)CCN2c2nc(C)cc(C(F)(F)F)c2C#N)c1
IC50 (second compound 0.0316 µM): 71.6 nM | IC50 (second compound 0.1 µM): 75.8 nM | IC50 (second compound 0.316 µM): 30.2 nM | IC50 (second compound 1 µM): 77.3 nM | IC50 (second compound 3.16 µM): 92.7 nM | IC50 (second compound 10 µM): 146 nM | viability, T/C [1]: 84.8% | viability, T/C [2]: 70.7% | viability, T/C [3]: 61.9% | viability, T/C [4]: 46.8% | viability, T/C [5]: 33.9% | viability, T/C [6]: 35% | viability, T/C [7]: 95.5% | viability, T/C [8]: 81.7% | viability, T/C [9]: 68.5% | viability, T/C [10]: 40.8% | viability, T/C [11]: 39.7% | viability, T/C [12]: 30.7% | viability, T/C [13]: 86.9% | viability, T/C [14]: 81.8% | viability, T/C [15]: 48.2% | viability, T/C [16]: 45.7% | viability, T/C [17]: 40.4% | viability, T/C [18]: 35.4% | viability, T/C [19]: 91.4% | viability, T/C [20]: 82.9% | viability, T/C [21]: 51.2% | viability, T/C [22]: 51.4% | viability, T/C [23]: 39.5% | viability, T/C [24]: 29.1% | viability, T/C [25]: 91.5% | viability, T/C [26]: 77% | viability, T/C [27]: 47.1% | viability, T/C [28]: 60.2% | viability, T/C [29]: 41.1% | viability, T/C [30]: 31.8% | viability, T/C [31]: 88.3% | viability, T/C [32]: 83.5% | viability, T/C [33]: 65.8% | viability, T/C [34]: 51.7% | viability, T/C [35]: 46.6% | viability, T/C [36]: 47.5%
